Several values for one entry are separate records, joined by “and”; a condition that tells them apart may be missing. Identical values can stand only once.
Biological target: T1, SV2A (Macaca fascicularis, UniProt Q4R4X3)
T1 construct: The current study evaluates [^18F]UCB-H pharmacokinetics in healthy NHPs; from tissue; host or cells: brain of living healthy cynomolgus monkeys (in vivo PET)
Assay: Brain PET kinetic modelling (1TCM, 2TCM, 2TCM-c, Logan), test-retest
Type: in vivo, cynomolgus monkeys (Macaca fascicularis)
Experimental: All four non-human primates (NHP) underwent a 2-h (2 h) test and retest PET scan; two NHP underwent an additional 4-h (4 h) retest PET scan. Three NHP underwent one 4-h (4 h) displacement PET scan. Arterial blood sampling was performed during test and retest scans with PET imaging spaced by at least 3 weeks between each scan. To this end, the femoral artery opposite to the saphenous vein used for radioligand injection was cannulated. For the 2-h (2 h) scans, we collected in total 28 blood samples of 1 mL: 16 samples during the first 5 min followed by […] every 5 min and […] every 10 min. For the 4 h scans, we collected an additional 6 samples every 20 min during the last two hours (34 samples in total). Larger samples (2 – 3 mL) were collected at 5, 15, 30, 60, 90, 120 min (2 h) and at 180, 240 min (4 h) for metabolite analysis. Displacement of [^18F]UCB-H was done by intravenous (IV) administration 90 min after [^18F]UCB-H injection of a bolus of 30 mg/kg LEV, or of 80 µg/kg (≈250 nmol/kg) or 5 mg/kg (≈15 µmol/kg) of cold [^19F]-UCB-H. Full experimental design of all NHP is outlined in Additional file 1: Table 1.
PET imaging was performed on the microPET FOCUS220 (Siemens) under standard anesthesia and monitoring procedures. Data acquisition started with the IV bolus injection of [^18F]UCB-H (32.9 ± 1.0 MBq/kg, 0.35 ± 0.07 µg/kg). Dynamic PET images were reconstructed using standard OSEM-2D algorithms while correcting for radioactive decay, scatter, attenuation and detectors inhomogeneity, which were measured prior to PET scanning using respectively ^57Co and ^68Ge external sources.
PET image analysis was performed using PMOD software version 3.8 (PMOD Technologies Ltd., Zurich, Suisse). After individual co-registration of PET-MR images, a cynomolgus atlas published by Ballanger and coworkers was normalized to PET images to extract time activity curves in different brain regions. Volumes of interest (VOI) were cerebral white matter (16.7 cm^3), striatum (0.24 cm^3), thalamus (0.89 cm^3), cerebellum (3.83 cm^3), frontal—(2.50 cm^3), parietal—(5.35 cm^3), and temporal (8.22 cm^3) cortex, and whole brain (72.2 cm^3) as a composite region of all regions in the atlas. [^18F]UCB-H pharmacokinetics were evaluated by analyzing the time activity curves of the test- and retest scans using 1- and 2-tissue compartment models (unconstrained and constrained with global K1/k2 coupled fit across all regions, further referred to as 2TCM and 2TCM-c), and Logan graphical analysis with a fixed t* at 60 min [33] using the arterial plasma input function corrected for radio-metabolites to derive the volume of distribution in each region. Percentage standard error (%SE) was estimated from the theoretical parameter covariance matrix. Only reliable estimates (%SE less than 25%) were included in the current analyses. For the three drug studies, percent displacement of the total activity in the whole brain was estimated relative to an average baseline constructed from the two 4 h baseline studies. Briefly, Standardized Uptake Value (SUV) time activity curves (TACs) were calculated for the two baseline and the three displacement studies. Then, each curve was normalized to the SUV at t = 90 min, corresponding to the timeframe immediately before the administration of the drugs in the displacement studies. Baseline curves were averaged and the percent displacement of total activity was calculated as (baseline-displacement)/baseline at a given time post drug administration (see “Results”).
Statistical analysis was performed using R software (version 3.3.1.). Plasma, intact parent fraction and time activity curves were statistically compared between subjects using a one-factor variance analysis. Absolute Test–Retest variability (aTRV) of PET quantification parameters was calculated as ABS(test—retest) / AVERAGE(test, retest). […]

[1] = Temporal Cortex, Retest, individual NHP
[2] = Temporal Cortex, Test, individual NHP
[3] = Thalamus, Retest, individual NHP

T1 sequence (Q4R4X3 whole entry): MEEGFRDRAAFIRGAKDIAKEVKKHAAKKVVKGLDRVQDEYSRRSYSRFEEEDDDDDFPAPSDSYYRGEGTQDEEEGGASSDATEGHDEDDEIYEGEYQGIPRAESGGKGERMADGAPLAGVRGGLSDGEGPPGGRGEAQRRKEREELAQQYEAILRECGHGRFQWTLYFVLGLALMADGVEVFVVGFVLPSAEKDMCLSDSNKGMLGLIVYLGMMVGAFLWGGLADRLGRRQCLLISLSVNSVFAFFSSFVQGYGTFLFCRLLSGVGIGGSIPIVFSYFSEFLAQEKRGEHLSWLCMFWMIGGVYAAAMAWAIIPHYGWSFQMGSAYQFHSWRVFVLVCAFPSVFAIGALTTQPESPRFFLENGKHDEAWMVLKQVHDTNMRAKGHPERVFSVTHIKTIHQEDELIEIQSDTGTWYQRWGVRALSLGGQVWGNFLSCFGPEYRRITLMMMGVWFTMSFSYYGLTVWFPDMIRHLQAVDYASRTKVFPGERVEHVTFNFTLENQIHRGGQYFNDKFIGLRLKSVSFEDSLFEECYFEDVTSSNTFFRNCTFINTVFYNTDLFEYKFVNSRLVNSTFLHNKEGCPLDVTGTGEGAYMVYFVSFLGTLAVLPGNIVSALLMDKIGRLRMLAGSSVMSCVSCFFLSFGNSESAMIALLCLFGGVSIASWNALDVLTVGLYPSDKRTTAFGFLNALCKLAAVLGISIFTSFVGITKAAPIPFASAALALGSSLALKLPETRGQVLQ

O=C1C[C@H](c2cc(F)c(F)c(F)c2)CN1Cc1ccncc1[18F] [[^18F]UCB-H]
VT (Logan (t* = 60)) (Striatum, Retest, mean): 15.7 mL/cm^3 | k3/k4 (BPND) (2TCM-c) (Striatum, Retest, mean): 1.12 | K1 (2TCM) (Striatum, Test, individual NHP): 0.24 ml/cm^3 /min and 0.25 ml/cm^3 /min and 0.51 ml/cm^3 /min and 0.63 ml/cm^3 /min | K1 (2TCM-c) (Striatum, Test, individual NHP): 0.24 ml/cm^3 /min and 0.26 ml/cm^3 /min and 0.53 ml/cm^3 /min and 0.63 ml/cm^3 /min | K1/k2 (2TCM) (Striatum, Test, individual NHP): 10.32 ml/cm^3 and 7.75 ml/cm^3 and 12.01 ml/cm^3 and 15.06 ml/cm^3 | K1/k2 (2TCM-c) (Striatum, Test, individual NHP): 7.86 ml/cm^3 and 4.35 ml/cm^3 and 8.22 ml/cm^3 and 10.99 ml/cm^3 | VT (1TCM) (Striatum, Test, individual NHP): 12.87 ml/cm^3 and 11.31 ml/cm^3 and 16.41 ml/cm^3 and 16.40 ml/cm^3 | VT (2TCM) (Striatum, Test, individual NHP): 13.09 ml/cm^3 and 17.60 ml/cm^3 | VT (2TCM-c) (Striatum, Test, individual NHP): 14.78 ml/cm^3 and 11.92 ml/cm^3 and 16.73 ml/cm^3 and 16.50 ml/cm^3 | VT (Logan) (Striatum, Test, individual NHP): 15.21 ml/cm3 and 12.85 ml/cm3 and 17.23 ml/cm3 and 17.97 ml/cm3 | k3/k4 (2TCM) (Striatum, Test, individual NHP): 0.69 | k3/k4 (2TCM-c) (Striatum, Test, individual NHP): 1.74 and 1.24 and 0.50 | VT (1TCM) (Striatum, Test, mean): 14.2 mL/cm^3 | VT (2TCM) (Striatum, Test, mean): 15.3 mL/cm^3 | VT (2TCM-c) (Striatum, Test, mean): 15.0 mL/cm^3 | VT (Logan (t* = 60)) (Striatum, Test, mean): 15.8 mL/cm^3 | k3/k4 (BPND) (2TCM-c) (Striatum, Test, mean): 1.16 | K1 (2TCM) [1]: 0.31 ml/cm^3 /min and 0.45 ml/cm^3 /min and 0.29 ml/cm^3 /min and 0.36 ml/cm^3 /min | K1 (2TCM-c) [1]: 0.32 ml/cm^3 /min and 0.48 ml/cm^3 /min and 0.30 ml/cm^3 /min and 0.36 ml/cm^3 /min | K1/k2 (2TCM) [1]: 11.50 ml/cm^3 and 9.63 ml/cm^3 and 11.78 ml/cm^3 | K1/k2 (2TCM-c) [1]: 7.25 ml/cm^3 and 4.64 ml/cm^3 and 9.07 ml/cm^3 and 10.70 ml/cm^3 | VT (1TCM) [1]: 11.57 ml/cm^3 and 13.96 ml/cm^3 and 13.50 ml/cm^3 and 13.13 ml/cm^3 | VT (2TCM) [1]: 13.97 ml/cm^3 and 13.95 ml/cm^3 | VT (2TCM-c) [1]: 11.57 ml/cm^3 and 14.06 ml/cm^3 and 13.53 ml/cm^3 | VT (Logan) [1]: 11.91 ml/cm3 and 13.90 ml/cm3 and 16.34 ml/cm3 and 13.54 ml/cm3 | k3/k4 (2TCM-c) [1]: 0.60 and 2.03 and 0.29 | K1 (2TCM) [2]: 0.17 ml/cm^3 /min and 0.23 ml/cm^3 /min and 0.37 ml/cm^3 /min and 0.44 ml/cm^3 /min | K1 (2TCM-c) [2]: 0.17 ml/cm^3 /min and 0.24 ml/cm^3 /min and 0.37 ml/cm^3 /min and 0.44 ml/cm^3 /min | K1/k2 (2TCM) [2]: 11.10 ml/cm^3 and 7.16 ml/cm^3 and 8.97 ml/cm^3 and 12.30 ml/cm^3 | K1/k2 (2TCM-c) [2]: 7.86 ml/cm^3 and 4.35 ml/cm^3 and 8.22 ml/cm^3 and 10.99 ml/cm^3 | VT (1TCM) [2]: 12.66 ml/cm^3 and 10.58 ml/cm^3 and 14.25 ml/cm^3 and 13.95 ml/cm^3 | VT (2TCM) [2]: 12.30 ml/cm^3 and 15.50 ml/cm^3 | VT (2TCM-c) [2]: 17.46 ml/cm^3 and 11.23 ml/cm^3 and 14.95 ml/cm^3 and 15.47 ml/cm^3 | VT (Logan) [2]: 14.13 ml/cm3 and 11.99 ml/cm3 and 15.12 ml/cm3 and 15.35 ml/cm3 | k3/k4 (2TCM) [2]: 0.72 | k3/k4 (2TCM-c) [2]: 1.00 and 1.58 and 0.41 | ICC of Logan (t* = 60) VT (Temporal cortex): 0.61 | aTRV of 2TCM-c VT (Temporal cortex): 25% | aTRV of Logan (t* = 60) VT (Temporal cortex): 13% | VT (1TCM) (Temporal cortex, Retest, mean): 13.0 mL/cm^3 | VT (2TCM) (Temporal cortex, Retest, mean): 14.0 mL/cm^3 | VT (2TCM-c) (Temporal cortex, Retest, mean): 13.1 mL/cm^3 | VT (Logan (t* = 60)) (Temporal cortex, Retest, mean): 13.9 mL/cm^3 | k3/k4 (BPND) (2TCM-c) (Temporal cortex, Retest, mean): 0.97 | VT (1TCM) (Temporal cortex, Test, mean): 12.9 mL/cm^3 | VT (2TCM) (Temporal cortex, Test, mean): 13.9 mL/cm^3 | VT (2TCM-c) (Temporal cortex, Test, mean): 14.8 mL/cm^3 | VT (Logan (t* = 60)) (Temporal cortex, Test, mean): 14.1 mL/cm^3 | k3/k4 (BPND) (2TCM-c) (Temporal cortex, Test, mean): 1.00 | ICC of Logan (t* = 60) VT (Thalamus): 0.61 | aTRV of 2TCM-c VT (Thalamus): 18% | aTRV of Logan (t* = 60) VT (Thalamus): 12% | K1 (2TCM) [3]: 0.36 ml/cm^3 /min and 0.51 ml/cm^3 /min and 0.34 ml/cm^3 /min and 0.38 ml/cm^3 /min | K1 (2TCM-c) [3]: 0.37 ml/cm^3 /min and 0.54 ml/cm^3 /min and 0.36 ml/cm^3 /min and 0.38 ml/cm^3 /min | K1/k2 (2TCM) [3]: 12.79 ml/cm^3 and 11.34 ml/cm^3 and 12.88 ml/cm^3 | K1/k2 (2TCM-c) [3]: 7.25 ml/cm^3 and 4.64 ml/cm^3 and 9.07 ml/cm^3 and 10.70 ml/cm^3 | VT (1TCM) [3]: 11.85 ml/cm^3 and 13.85 ml/cm^3 and 14.73 ml/cm^3 and 13.28 ml/cm^3 | VT (2TCM) [3]: 11.88 ml/cm^3 and 14.03 ml/cm^3 | VT (2TCM-c) [3]: 11.88 ml/cm^3 and 13.92 ml/cm^3 and 17.03 ml/cm^3 and 13.98 ml/cm^3 | VT (Logan) [3]: 12.16 ml/cm3 and 14.10 ml/cm3 and 17.41 ml/cm3 and 13.62 ml/cm3
